According to US9468615B2, “Use of malononitrilamides in neuropathic pain” (AL-GIAX Pharmaceuticals GMBH, priority 2010, dated 2016):

Experiments:
[1] = system: severe spinal cord contusion injury in the rat; assay: Acetone test (cold chemical stimulus) after severe spinal cord contusion injury, treatment DPO 28-35; format: in vivo; details: 10 mg/kg/day by gavage DPO 28 till DPO 35
Method: (§1) Thirteen week-old female Lewis rats (Charles River, Sulzfeld Germany) were housed under a 12:12 h dark/light regime and allowed free access to water and food. After one week of habituation the animals underwent general anesthesia with a mixture of isoflurane and air (induction: 5% isoflurane, maintenance: 2.2% isofluorane). A Th10 laminectomy was performed without rupturing the dura and a severe contusive SCI (25 gem NYU/MASCIS II impactor) (Gruner, 1992 #3) was induced. After suturing muscle and skin, a subcutaneous (s.c.) injection of 5 ml of Ringers Lactate was given. Bladders were emptied manually 2 times a day until spontaneous voiding returned (usually within 1 week). The lesion severity was verified by the impact velocity and contusion depth of the impactor rod. Animals with an impact velocity error >5% were excluded from further analysis. After injury, individual rats were randomly assigned into a treatment group. The following groups were used:
(§2) Group 2: SCI+HR 325 (10 mg/kg/day) in vehicle by gavage for 7 days, from DPO 28 till DPO 35
(§3) Group 3: SCI+FK 778 (10 mg/kg/day) in vehicle by gavage for 7 day, from DPO 28 till DPO 35
A slightly modified method of De la Calle and colleagues (De la Calle et al., 2002) was used for the determination of the reactivity to a cold chemical stimulus. The rat was placed in acrylic cages on top of a wire mesh grid, which allowed access to the paws, and acetone was applied to the plantar surface of the hind paw. To do this, 100 μl of acetone was sprayed onto the plantar surface of the rat's hind leg from below the grid with a syringe holding 2.5 ml. The time spent with the leg withdrawn from floor during the 60 s following exposure to acetone was recorded. Both hind legs were tested in each animal with an interval of 5-10 min between each test. The average reaction time between the two legs was taken for further analysis. A minimal value of 1 s was assigned to convey a fast or brisk reaction, while 0 was assigned if there was no reaction at all. This acetone test has been described as composing of cold, chemical, and possibly mechanical stimulation.

[2] = system: severe spinal cord contusion injury in the rat; assay: Mechanical sensitivity (von Frey, Up-Down) after severe spinal cord contusion injury, treatment DPO 28-35; format: in vivo; details: for withdrawal threshold (50% threshold force): DPO 28, before start of treatment (group baseline), 15 grams before injury, vehicle group 2.7
Method: as §1
The mechanical sensitivity response was measured as the direct pressure stimulus required eliciting foot withdrawal in nonrestrained conditions. All tests were conducted in the morning between 7:30 and 10:30 am and the person performing the behavioral tests was blinded to the experimental groups. Animals were habituated to the testing apparatus for at least 20 min before testing. Each animal was subjected to the stimulation of a series of von Frey filaments ranging from 0.4 to 15 g (log force 3.61, 3.84, 4.08, 4.31, 4.56, 4.74, 4.93 and 5.18) using the Up-Down paradigm according to Chaplan (Chaplan et al., 1994). The selected von Frey filament was pressed against the plantar surface of the hind paw to the point of 30° bending for 3 s. Paw withdrawal response was considered as the positive response. The 50% threshold force needed for paw withdrawal was calculated for both hind paws of each rat and the mean value of both hind paws was used to represent the mechanical sensitivity of this animal.
as §2, §3

[3] = system: spinal cord contusion injury; assay: Mechanical sensitivity (von Frey, Up-Down), chronic central neuropathic pain three months after spinal cord contusion injury, treatment DPO 84-91; format: in vivo, rat; details: DPO 28, before treatment (group baseline, stable up to DPO 84); 15 grams before injury; vehicle group 3.2
Method: as §1, with “used: The mechanical sensitivity response was measured as the direct pressure stimulus required eliciting foot withdrawal in nonrestrained conditions. […] The 50% threshold force needed for paw withdrawal was calculated for both hind paws of each rat and the mean value of both hind paws was used to represent the mechanical sensitivity of this animal. […]” for “used:”

[4] = system: partial ligation of the sciatic nerve; assay: Mechanical sensitivity (von Frey, Up-Down) after partial ligation of the sciatic nerve; format: in vivo, rat; details: DPO 21, after daily oral 10 mg/kg DPO 14 till DPO 21; 60 grams before injury, 19 grams at DPO 14 before treatment; FIG. 8
Method: The mechanical sensitivity response was measured as the direct pressure stimulus required eliciting foot withdrawal in nonrestained conditions. Animals were habituated to the testing apparatus for at least 20 min before testing. Each animal was subjected to the stimulation of a series of von Frey filaments ranging from 1.0 to 60 g using the Up-Down paradigm according to Chapter (Chaplan et al., 1994). The selected von Frey filament was pressed against the plantar surface of the hind paw to the point of 30° bending for 3 s. Paw withdrawal response was considered as the positive response. The 50% threshold force needed for paw withdrawal was calculated for both hind paws of each rat. The methods of Seltzer et al. (1990) were followed. The dorsum of the sciatic nerve was carefully freed from surrounding connective tissues at a site near the trochanter just distal to the point at which the posterior biceps semitendinosus nerve branches off the common sciatic nerve. The nerve was fixed in its place by pinching the epineurium on its dorsal aspect, taking care not to press the nerve against underlying structures. An 8-0 (Polyamide 6) suture was inserted into the nerve and tightly ligated so that the dorsal ⅓-½ of the nerve thickness was trapped in the ligature (Seltzer et al., 1990). […]

| SMILES | reversal of cold allodynia after experimental spinal cord injury (conclusion) [1] | duration of response to acetone exposure vs vehicle controls ([1]; DPO 35, one-way ANOVA p<0.01, FIG. 3) | duration of response to acetone exposure vs vehicle controls ([1]; DPO 56, ANOVA p<0.001, Bonferroni post-hoc) | duration of response to acetone exposure, differences to vehicle controls ([1]; end of experiment DPO 70, p<0.01) | reversal of mechanical allodynia after experimental spinal cord injury (conclusion) ([2]; 10 mg/kg/day by gavage DPO 28 till DPO 35) | withdrawal threshold (50% threshold force) [2] [grams] | withdrawal threshold vs vehicle control animals ([2]; DPO 35, 10 mg/kg/day by gavage DPO 28 till DPO 35, one-way ANOVA p<0.001, FIG. 2) | withdrawal threshold, difference to vehicle controls ([2]; end of experiment DPO 77, 10 mg/kg/day by gavage DPO 28 till DPO 35, p<0.001) | withdrawal threshold (50% threshold force) [3] [grams] | withdrawal threshold in the ipsilateral paw [4] [grams] |
| --- | --- | --- | --- | --- | --- | --- | --- | --- | --- | --- |
| C#CCCC(O)=C(C#N)C(=O)Nc1ccc(C(F)(F)F)cc1 [FK-778, N-(4-trifluoromethyl)-phenyl-2-cyano-3-hydroxy-hept-2-en-6-in-carboxylic acidamide] | able to reverse cold allodynia | responded significantly shorter | responded significantly shorter | differences remained unchanged | able to reverse mechanical allodynia | 3.1 | significantly higher | statistically significant difference between the treated animals and the vehicle controls remained | – | – |
| Cc1cc(NC(=O)/C(C#N)=C(\O)C2CC2)ccc1C(F)(F)F [HR-325, 1(3-methyl-4-trifluoromethylphenyl-carbamoyl)-2-cyclopropyl-2oxo-propionitrile] | – | – | – | – | – | 3.0 | – | – | 2.7 | 54 |
